Laboratory results reported in ChEMBL document CHEMBL1127066, “Discovery and structure-activity relationship of a series of 1-carba-1-dethiacephems exhibiting activity against methicillin-resistant Staphylococcus aureus” (J Med Chem, 1993).

tested on: Escherichia coli; assay: In vitro evaluation of antimicrobial activity against Escherichia coli EC14 strain; assay type: functional

Compound | MIC [µg/mL]
CCOC(=O)c1csc(SC2=C(C(=O)[O-])N3C(=O)[C@@H](NC(=O)/C(=N/OCCF)c4csc(N)n4)[C@H]3CC2)n1.[Na+] | 0.5
Nc1nc(/C(=N\OCCF)C(=O)N[C@@H]2C(=O)N3C(C(=O)[O-])=C(Sc4nc5cncnc5s4)CC[C@H]23)cs1.[Na+] | 0.25
C[n+]1ccc2sc(SC3=C(C(=O)[O-])N4C(=O)[C@@H]([N-]C(=O)/C(=N/OCCF)c5csc(N)n5)[C@H]4CC3)nc2c1.[Na+] | 0.25
CCCCOC(=O)c1csc(SC2=C(C(=O)[O-])N3C(=O)[C@@H](NC(=O)/C(=N/OCCF)c4csc(N)n4)[C@H]3CC2)n1.[Na+] | 0.5
Cn1c(SC2=C(C(=O)[O-])N3C(=O)[C@@H](NC(=O)/C(=N/OCCF)c4csc(N)n4)[C@H]3CC2)n[nH]c(=O)c1=O.[Na+] | 0.06

tested on: Enterobacter cloacae; assay: In vitro evaluation of antimicrobial activity against Enterobacter cloacae EB5 strain; assay type: functional

Compound | MIC [µg/mL]
CCOC(=O)c1csc(SC2=C(C(=O)[O-])N3C(=O)[C@@H](NC(=O)/C(=N/OCCF)c4csc(N)n4)[C@H]3CC2)n1.[Na+] | 4
Nc1nc(/C(=N\OCCF)C(=O)N[C@@H]2C(=O)N3C(C(=O)[O-])=C(Sc4nc5cncnc5s4)CC[C@H]23)cs1.[Na+] | 2
C[n+]1ccc2sc(SC3=C(C(=O)[O-])N4C(=O)[C@@H]([N-]C(=O)/C(=N/OCCF)c5csc(N)n5)[C@H]4CC3)nc2c1.[Na+] | 4
CCCCOC(=O)c1csc(SC2=C(C(=O)[O-])N3C(=O)[C@@H](NC(=O)/C(=N/OCCF)c4csc(N)n4)[C@H]3CC2)n1.[Na+] | 4
Cn1c(SC2=C(C(=O)[O-])N3C(=O)[C@@H](NC(=O)/C(=N/OCCF)c4csc(N)n4)[C@H]3CC2)n[nH]c(=O)c1=O.[Na+] | 0.5

tested on: Haemophilus influenzae; assay: In vitro antimicrobial activity against Haemophilus influenzae C.L. strain; assay type: functional

Compound | MIC [µg/mL]
CCOC(=O)c1csc(SC2=C(C(=O)[O-])N3C(=O)[C@@H](NC(=O)/C(=N/OCCF)c4csc(N)n4)[C@H]3CC2)n1.[Na+] | 0.06
Nc1nc(/C(=N\OCCF)C(=O)N[C@@H]2C(=O)N3C(C(=O)[O-])=C(Sc4nc5cncnc5s4)CC[C@H]23)cs1.[Na+] | 0.03
C[n+]1ccc2sc(SC3=C(C(=O)[O-])N4C(=O)[C@@H]([N-]C(=O)/C(=N/OCCF)c5csc(N)n5)[C@H]4CC3)nc2c1.[Na+] | 0.06
CCCCOC(=O)c1csc(SC2=C(C(=O)[O-])N3C(=O)[C@@H](NC(=O)/C(=N/OCCF)c4csc(N)n4)[C@H]3CC2)n1.[Na+] | 0.03
Cn1c(SC2=C(C(=O)[O-])N3C(=O)[C@@H](NC(=O)/C(=N/OCCF)c4csc(N)n4)[C@H]3CC2)n[nH]c(=O)c1=O.[Na+] | 0.03

tested on: Klebsiella; assay: In vitro antimicrobial activity against Klebsiella X26 strain; assay type: functional

Compound | MIC [µg/mL]
CCOC(=O)c1csc(SC2=C(C(=O)[O-])N3C(=O)[C@@H](NC(=O)/C(=N/OCCF)c4csc(N)n4)[C@H]3CC2)n1.[Na+] | 0.06
Nc1nc(/C(=N\OCCF)C(=O)N[C@@H]2C(=O)N3C(C(=O)[O-])=C(Sc4nc5cncnc5s4)CC[C@H]23)cs1.[Na+] | 0.03
C[n+]1ccc2sc(SC3=C(C(=O)[O-])N4C(=O)[C@@H]([N-]C(=O)/C(=N/OCCF)c5csc(N)n5)[C@H]4CC3)nc2c1.[Na+] | 0.03
CCCCOC(=O)c1csc(SC2=C(C(=O)[O-])N3C(=O)[C@@H](NC(=O)/C(=N/OCCF)c4csc(N)n4)[C@H]3CC2)n1.[Na+] | 0.03
Cn1c(SC2=C(C(=O)[O-])N3C(=O)[C@@H](NC(=O)/C(=N/OCCF)c4csc(N)n4)[C@H]3CC2)n[nH]c(=O)c1=O.[Na+] | 0.06

tested on: Pseudomonas aeruginosa; assay: Antimicrobial activity against Pseudomonas PS18 strain; assay type: functional

Compound | MIC [µg/mL]
CCOC(=O)c1csc(SC2=C(C(=O)[O-])N3C(=O)[C@@H](NC(=O)/C(=N/OCCF)c4csc(N)n4)[C@H]3CC2)n1.[Na+] | 128
Nc1nc(/C(=N\OCCF)C(=O)N[C@@H]2C(=O)N3C(C(=O)[O-])=C(Sc4nc5cncnc5s4)CC[C@H]23)cs1.[Na+] | 128
C[n+]1ccc2sc(SC3=C(C(=O)[O-])N4C(=O)[C@@H]([N-]C(=O)/C(=N/OCCF)c5csc(N)n5)[C@H]4CC3)nc2c1.[Na+] | 32
CCCCOC(=O)c1csc(SC2=C(C(=O)[O-])N3C(=O)[C@@H](NC(=O)/C(=N/OCCF)c4csc(N)n4)[C@H]3CC2)n1.[Na+] | 128
Cn1c(SC2=C(C(=O)[O-])N3C(=O)[C@@H](NC(=O)/C(=N/OCCF)c4csc(N)n4)[C@H]3CC2)n[nH]c(=O)c1=O.[Na+] | 32

tested on: Pseudomonas aeruginosa; assay: In vitro antimicrobial activity against Pseudomonas X239 strain; assay type: functional

Compound | MIC [µg/mL]
CCOC(=O)c1csc(SC2=C(C(=O)[O-])N3C(=O)[C@@H](NC(=O)/C(=N/OCCF)c4csc(N)n4)[C@H]3CC2)n1.[Na+] | > 128
Nc1nc(/C(=N\OCCF)C(=O)N[C@@H]2C(=O)N3C(C(=O)[O-])=C(Sc4nc5cncnc5s4)CC[C@H]23)cs1.[Na+] | 128
C[n+]1ccc2sc(SC3=C(C(=O)[O-])N4C(=O)[C@@H]([N-]C(=O)/C(=N/OCCF)c5csc(N)n5)[C@H]4CC3)nc2c1.[Na+] | 32
CCCCOC(=O)c1csc(SC2=C(C(=O)[O-])N3C(=O)[C@@H](NC(=O)/C(=N/OCCF)c4csc(N)n4)[C@H]3CC2)n1.[Na+] | > 128
Cn1c(SC2=C(C(=O)[O-])N3C(=O)[C@@H](NC(=O)/C(=N/OCCF)c4csc(N)n4)[C@H]3CC2)n[nH]c(=O)c1=O.[Na+] | 32

tested on: Staphylococcus epidermidis; assay: In vitro antimicrobial activity against Staphylococcus epidermidis 222 strain; assay type: functional

Compound | MIC [µg/mL]
CCOC(=O)c1csc(SC2=C(C(=O)[O-])N3C(=O)[C@@H](NC(=O)/C(=N/OCCF)c4csc(N)n4)[C@H]3CC2)n1.[Na+] | 2
Nc1nc(/C(=N\OCCF)C(=O)N[C@@H]2C(=O)N3C(C(=O)[O-])=C(Sc4nc5cncnc5s4)CC[C@H]23)cs1.[Na+] | 0.5
C[n+]1ccc2sc(SC3=C(C(=O)[O-])N4C(=O)[C@@H]([N-]C(=O)/C(=N/OCCF)c5csc(N)n5)[C@H]4CC3)nc2c1.[Na+] | 2
CCCCOC(=O)c1csc(SC2=C(C(=O)[O-])N3C(=O)[C@@H](NC(=O)/C(=N/OCCF)c4csc(N)n4)[C@H]3CC2)n1.[Na+] | 1
Cn1c(SC2=C(C(=O)[O-])N3C(=O)[C@@H](NC(=O)/C(=N/OCCF)c4csc(N)n4)[C@H]3CC2)n[nH]c(=O)c1=O.[Na+] | 2

tested on: Staphylococcus epidermidis; assay: In vitro antimicrobial activity against Staphylococcus epidermidis 270 strain; assay type: functional

Compound | MIC [µg/mL]
CCOC(=O)c1csc(SC2=C(C(=O)[O-])N3C(=O)[C@@H](NC(=O)/C(=N/OCCF)c4csc(N)n4)[C@H]3CC2)n1.[Na+] | 2
Nc1nc(/C(=N\OCCF)C(=O)N[C@@H]2C(=O)N3C(C(=O)[O-])=C(Sc4nc5cncnc5s4)CC[C@H]23)cs1.[Na+] | 2
C[n+]1ccc2sc(SC3=C(C(=O)[O-])N4C(=O)[C@@H]([N-]C(=O)/C(=N/OCCF)c5csc(N)n5)[C@H]4CC3)nc2c1.[Na+] | 8
CCCCOC(=O)c1csc(SC2=C(C(=O)[O-])N3C(=O)[C@@H](NC(=O)/C(=N/OCCF)c4csc(N)n4)[C@H]3CC2)n1.[Na+] | 4
Cn1c(SC2=C(C(=O)[O-])N3C(=O)[C@@H](NC(=O)/C(=N/OCCF)c4csc(N)n4)[C@H]3CC2)n[nH]c(=O)c1=O.[Na+] | 8

tested on: Staphylococcus aureus; assay: In vitro antimicrobial activity against Staphylococcus aureus S13E strain; assay type: functional

Compound | MIC [µg/mL]
CCOC(=O)c1csc(SC2=C(C(=O)[O-])N3C(=O)[C@@H](NC(=O)/C(=N/OCCF)c4csc(N)n4)[C@H]3CC2)n1.[Na+] | 16
Nc1nc(/C(=N\OCCF)C(=O)N[C@@H]2C(=O)N3C(C(=O)[O-])=C(Sc4nc5cncnc5s4)CC[C@H]23)cs1.[Na+] | 8
C[n+]1ccc2sc(SC3=C(C(=O)[O-])N4C(=O)[C@@H]([N-]C(=O)/C(=N/OCCF)c5csc(N)n5)[C@H]4CC3)nc2c1.[Na+] | 16
CCCCOC(=O)c1csc(SC2=C(C(=O)[O-])N3C(=O)[C@@H](NC(=O)/C(=N/OCCF)c4csc(N)n4)[C@H]3CC2)n1.[Na+] | 16
Cn1c(SC2=C(C(=O)[O-])N3C(=O)[C@@H](NC(=O)/C(=N/OCCF)c4csc(N)n4)[C@H]3CC2)n[nH]c(=O)c1=O.[Na+] | 64

tested on: Staphylococcus aureus; assay: In vitro antimicrobial activity against Staphylococcus aureus X400 strain; assay type: functional

Compound | MIC [µg/mL]
CCOC(=O)c1csc(SC2=C(C(=O)[O-])N3C(=O)[C@@H](NC(=O)/C(=N/OCCF)c4csc(N)n4)[C@H]3CC2)n1.[Na+] | 32
Nc1nc(/C(=N\OCCF)C(=O)N[C@@H]2C(=O)N3C(C(=O)[O-])=C(Sc4nc5cncnc5s4)CC[C@H]23)cs1.[Na+] | 16
C[n+]1ccc2sc(SC3=C(C(=O)[O-])N4C(=O)[C@@H]([N-]C(=O)/C(=N/OCCF)c5csc(N)n5)[C@H]4CC3)nc2c1.[Na+] | 128
CCCCOC(=O)c1csc(SC2=C(C(=O)[O-])N3C(=O)[C@@H](NC(=O)/C(=N/OCCF)c4csc(N)n4)[C@H]3CC2)n1.[Na+] | 64
Cn1c(SC2=C(C(=O)[O-])N3C(=O)[C@@H](NC(=O)/C(=N/OCCF)c4csc(N)n4)[C@H]3CC2)n[nH]c(=O)c1=O.[Na+] | 128

tested on: Streptococcus pneumoniae; assay: In vitro antimicrobial activity against Streptococcus pneumoniae PARK strain; assay type: functional

Compound | MIC [µg/mL]
CCOC(=O)c1csc(SC2=C(C(=O)[O-])N3C(=O)[C@@H](NC(=O)/C(=N/OCCF)c4csc(N)n4)[C@H]3CC2)n1.[Na+] | < 0.008
Nc1nc(/C(=N\OCCF)C(=O)N[C@@H]2C(=O)N3C(C(=O)[O-])=C(Sc4nc5cncnc5s4)CC[C@H]23)cs1.[Na+] | < 0.008
C[n+]1ccc2sc(SC3=C(C(=O)[O-])N4C(=O)[C@@H]([N-]C(=O)/C(=N/OCCF)c5csc(N)n5)[C@H]4CC3)nc2c1.[Na+] | 0.15
CCCCOC(=O)c1csc(SC2=C(C(=O)[O-])N3C(=O)[C@@H](NC(=O)/C(=N/OCCF)c4csc(N)n4)[C@H]3CC2)n1.[Na+] | < 0.008
Cn1c(SC2=C(C(=O)[O-])N3C(=O)[C@@H](NC(=O)/C(=N/OCCF)c4csc(N)n4)[C@H]3CC2)n[nH]c(=O)c1=O.[Na+] | 0.015

tested on: Staphylococcus aureus; assay: In vitro antimicrobial activity against Staphylococcus aureus X1.1 strain; assay type: functional

Compound | MIC [µg/mL]
CCOC(=O)c1csc(SC2=C(C(=O)[O-])N3C(=O)[C@@H](NC(=O)/C(=N/OCCF)c4csc(N)n4)[C@H]3CC2)n1.[Na+] | 1
Nc1nc(/C(=N\OCCF)C(=O)N[C@@H]2C(=O)N3C(C(=O)[O-])=C(Sc4nc5cncnc5s4)CC[C@H]23)cs1.[Na+] | 0.125
C[n+]1ccc2sc(SC3=C(C(=O)[O-])N4C(=O)[C@@H]([N-]C(=O)/C(=N/OCCF)c5csc(N)n5)[C@H]4CC3)nc2c1.[Na+] | 2
CCCCOC(=O)c1csc(SC2=C(C(=O)[O-])N3C(=O)[C@@H](NC(=O)/C(=N/OCCF)c4csc(N)n4)[C@H]3CC2)n1.[Na+] | 0.5
Cn1c(SC2=C(C(=O)[O-])N3C(=O)[C@@H](NC(=O)/C(=N/OCCF)c4csc(N)n4)[C@H]3CC2)n[nH]c(=O)c1=O.[Na+] | 0.5
